Legend:
Assay in all cases: Test F preemergence
large crabgrass = format: in vivo, Digitaria sanguinalis
Excerpt: (§1) Seeds of plant species selected from corn (Zea mays), soybean (Glycine max), velvetleaf (Abutilon theophrasti), lambsquarters (Chenopodium album), wild poinsettia (Euphorbia heterophylla), pigweed, palmer (palmer pigweed, Amaranthus palmeri), common waterhemp (Amaranthus rudis), surinam grass (Brachiaria decumbens), large crabgrass (Digitaria sanguinalis), crabgrass, Brazil (Brazilian crabgrass, Digitaria horizontalis), fall panicum (Panicum dichotomiflorum), giant foxtail (Setaria faberii), green foxtail (Setaria viridis), goosegrass (Eleusine indica), johnsongrass (Sorghum halepense), common ragweed (Ambrosia elation), barnyardgrass (Echinochloa crus-galli), southern sandbur (Cenchrus echinatus), arrowleaf sida (Sida rhombifolia), Italian ryegrass (Lolium multiflorum), dayflower, VA (Virginia (VA) dayflower, Commelina virginica), field bindweed (Convolvulus arvensis), cocklebur (common cocklebur, Xanthium strumarium), morningglory (Ipomoea coccinea), nightshade (eastern black nightshade, Solanum ptycanthum), kochia (Kochia scoparia), yellow nutsedge (Cyperus esculentus), and hairy beggarticks (Bidens pilosa), were planted into a silt loam soil and treated preemergence with test chemicals formulated in a non-phytotoxic solvent mixture which included a surfactant.
(§2) At the same time, plants from these crop and weed species and also horseweed (Canada horseweed, Conyza canadensis), smartweed (ladysthumb smartweed, Polygonum persicaria), waterhemp_RES1, (ALS & Triazine resistant common waterhemp, Amaranthus rudis), and waterhemp_RES2, (ALS & HPPD resistant common waterhemp, Amaranthus rudis) were treated with postemergence applications of test chemicals formulated in the same manner. Plants ranged in height from 2 to 18 cm for postemergence treatments (1- to 4-leaf stage). Treated plants and controls were maintained in a greenhouse for 14 to 21 days, after which time all species were compared to controls and visually evaluated. Plant response ratings, summarized in Table F, are based on a scale of 0 to 100 where 0 is no effect and 100 is complete control. A dash (-) response means no test result.

hairy beggarticks = format: in vivo, Bidens pilosa
Excerpt: as §1, §2

nightshade = format: in vivo, Solanum ptycanthum
Excerpt: as §1, §2

pigweed, palmer = format: in vivo, Amaranthus palmeri
Excerpt: as §1, §2

giant foxtail = format: in vivo, Setaria faberii
Excerpt: as §1, §2

velvetleaf = format: in vivo, Abutilon theophrasti
Excerpt: as §1, §2

[1] = Preemergence, 31 g ai/ha, scale 0 to 100
[2] = Preemergence, 62 g ai/ha, scale 0 to 100
[3] = Preemergence, 125 g ai/ha, scale 0 to 100
[4] = preemergence, 8 g ai/ha, scale 0 to 100, 100 is complete control
[5] = preemergence, 16 g ai/ha, scale 0 to 100, 100 is complete control
[6] = preemergence, scale 0 to 100, 100 is complete control
[7] = Preemergence, 16 g ai/ha, scale 0 to 100
[8] = Preemergence, 250 g ai/ha, scale 0 to 100

Row | Structure (SMILES) | Plant response rating, Large Crabgrass (large crabgrass; [2]) | Plant response rating, Large Crabgrass (large crabgrass; [3]) | Plant response rating, Large Crabgrass (large crabgrass; [4]) | Plant response rating, Large Crabgrass (large crabgrass; [5]) | Plant response rating, Hairy Beggarticks (hairy beggarticks; [2]) | Plant response rating, Hairy Beggarticks (hairy beggarticks; [3]) | Plant response rating, Hairy Beggarticks (hairy beggarticks; [4]) | Plant response rating, Hairy Beggarticks (hairy beggarticks; [5]) | Plant response rating, Nightshade (nightshade; [2]) | Plant response rating, Nightshade (nightshade; [3]) | Plant response rating, Nightshade (nightshade; [4]) | Plant response rating, Pigweed, Palmer (pigweed, palmer; [2]) | Plant response rating, Pigweed, Palmer (pigweed, palmer; [3]) | Plant response rating, Pigweed, Palmer (pigweed, palmer; [4]) | Plant response rating, Pigweed, Palmer (pigweed, palmer; [5]) | Plant response rating, Giant Foxtail (giant foxtail; [2]) | Plant response rating, Giant Foxtail (giant foxtail; [3]) | Plant response rating, Giant Foxtail (giant foxtail; [4]) | Plant response rating, Velvetleaf (velvetleaf; [2]) | Plant response rating, Velvetleaf (velvetleaf; [3]) | other results
1 | CCOc1cc(C(=O)NCC(F)(F)F)nn1Cc1ccnc(C(F)(F)F)c1 [Compound 104] | 100 | 100 | 70 | 90 | 0 | 10 | 0 | 0 | 100 | 100 | 0 | 50 | 100 | 0 | 0 | 100 | 100 | 25 | 95 | 100 | Plant response rating, Large Crabgrass (large crabgrass; [1]): 100; Plant response rating, Hairy Beggarticks (hairy beggarticks; [1]): 0; Plant response rating, Nightshade (nightshade; [1]): 100; Plant response rating, Nightshade (nightshade; [5]): 65; Plant response rating, Pigweed, Palmer (pigweed, palmer; [1]): 50; Plant response rating, Giant Foxtail (giant foxtail; [1]): 100; Plant response rating, Giant Foxtail (giant foxtail; [5]): 30; Plant response rating, Velvetleaf (velvetleaf; [1]): 50; Plant response rating, Velvetleaf (velvetleaf; [4]): 0; Plant response rating, Velvetleaf (velvetleaf; [5]): 0
2 | CCNC(=O)c1cc(CCCl)n(Cc2ccnc(C(F)(F)F)c2)n1 [Compound 179] | 95 | 90 | 0 |  | 40 | 40 | 35 |  | 85 | 100 | 0 | 35 | 100 | 0 |  | 40 | 98 | 0 | 20 | 40 | Plant response rating, Large Crabgrass (large crabgrass; [1]): 40; Plant response rating, Hairy Beggarticks (hairy beggarticks; [1]): 40; Plant response rating, Nightshade (nightshade; [1]): 65; Plant response rating, Pigweed, Palmer (pigweed, palmer; [1]): 0; Plant response rating, Giant Foxtail (giant foxtail; [1]): 25; Plant response rating, Velvetleaf (velvetleaf; [1]): 0; Plant response rating, Velvetleaf (velvetleaf; [4]): 0
3 | CCNC(=O)c1cc(CC)n(Cc2ccnc(C(F)(F)F)c2)n1 [Compound 196] | 100 | 100 | 35 | 35 | 15 | 35 | 0 | 0 | 75 | 95 | 0 | 100 | 100 | 0 | 0 | 70 | 100 | 0 | 20 | 35 | Plant response rating, Large Crabgrass (large crabgrass; [6]): 95; Plant response rating, Nightshade (nightshade; [7]): 50; Plant response rating, Nightshade (nightshade; [5]): 35; Plant response rating, Giant Foxtail (giant foxtail; [5]): 0; Plant response rating, Velvetleaf (velvetleaf; [4]): 0; Plant response rating, Velvetleaf (velvetleaf; [5]): 0; Plant response rating, Velvetleaf (velvetleaf; [6]): 0
4 | Cc1cc(C(=O)NC(C)C)nn1Cc1ccnc(C(F)(F)F)c1 [Compound 197] | 35 | 100 | 0 | 0 | 25 | 20 | 0 | 0 | 30 | 70 | 0 | 95 | 90 | 10 | 35 | 20 | 100 | 0 | 15 | 25 | Plant response rating, Large Crabgrass (large crabgrass; [6]): 35; Plant response rating, Nightshade (nightshade; [7]): 20; Plant response rating, Nightshade (nightshade; [5]): 10; Plant response rating, Giant Foxtail (giant foxtail; [5]): 0; Plant response rating, Velvetleaf (velvetleaf; [4]): 0; Plant response rating, Velvetleaf (velvetleaf; [5]): 0; Plant response rating, Velvetleaf (velvetleaf; [6]): 0
5 | CCc1cc(C(=O)NC2CC2)nn1Cc1ccnc(OCC(F)(F)F)c1 [Compound 200] | 20 | 100 |  | 0 | 0 | 0 |  | 0 | 20 | 75 |  | 0 | 95 |  | 0 | 0 | 5 |  | 20 | 80 | Plant response rating, Large Crabgrass (large crabgrass; [8]): 100; Plant response rating, Large Crabgrass (large crabgrass; [6]): 35; Plant response rating, Hairy Beggarticks (hairy beggarticks; [8]): 40; Plant response rating, Nightshade (nightshade; [8]): 98; Plant response rating, Nightshade (nightshade; [7]): 0; Plant response rating, Pigweed, Palmer (pigweed, palmer; [8]): 85; Plant response rating, Giant Foxtail (giant foxtail; [8]): 40; Plant response rating, Giant Foxtail (giant foxtail; [5]): 0; Plant response rating, Velvetleaf (velvetleaf; [8]): 85; Plant response rating, Velvetleaf (velvetleaf; [5]): 0; Plant response rating, Velvetleaf (velvetleaf; [6]): 0

Reference: patent US20150105252A1, “SUBSTITUTED PYRAZOLES AS HERBICIDES” (E I DU PONT DE NEMOURS AND COMPANY, priority 2013, published 2015)
